In patent publication US9957264B2 (Merck Sharp & Dohme Corp., priority 2013, dated 2018):
pIC50: −log10 of the molar value.

Assays:
[1] = molecular target: JAK2 (recombinant purified GST-tagged catalytic domain) (Homo sapiens (Human), UniProt O60674); assay: Jak Biochemical HTRF Assay (JAK2); conditions: [ATP] 8.5 μM
[2] = molecular target: JAK1 (recombinant purified GST-tagged catalytic domain) (Homo sapiens (Human), UniProt P23458); assay: Jak Biochemical HTRF Assay (JAK1); conditions: [ATP] 31.8 μM
Summary of the method: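 HTRF format, biotinylated peptide substrate; ATP-initiated reaction 120 min RT; EDTA quench + streptavidin-Dylight 650/Eu-anti-pY20 detection, 60 min RT; signal = 665/615 ratio ×10,000; normalized % inhibition, 4-parameter fit → IC50.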

JAK2 (recombinant purified GST-tagged catalytic domain), sequence (O60674 849-1124): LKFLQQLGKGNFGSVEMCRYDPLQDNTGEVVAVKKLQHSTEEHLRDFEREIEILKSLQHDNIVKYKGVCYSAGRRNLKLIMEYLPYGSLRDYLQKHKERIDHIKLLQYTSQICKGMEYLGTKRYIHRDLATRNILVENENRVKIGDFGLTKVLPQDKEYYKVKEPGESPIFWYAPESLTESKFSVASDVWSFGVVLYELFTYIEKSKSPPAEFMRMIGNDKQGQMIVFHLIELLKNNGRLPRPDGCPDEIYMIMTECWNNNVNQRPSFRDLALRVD
JAK1 (recombinant purified GST-tagged catalytic domain), sequence (P23458 875-1153): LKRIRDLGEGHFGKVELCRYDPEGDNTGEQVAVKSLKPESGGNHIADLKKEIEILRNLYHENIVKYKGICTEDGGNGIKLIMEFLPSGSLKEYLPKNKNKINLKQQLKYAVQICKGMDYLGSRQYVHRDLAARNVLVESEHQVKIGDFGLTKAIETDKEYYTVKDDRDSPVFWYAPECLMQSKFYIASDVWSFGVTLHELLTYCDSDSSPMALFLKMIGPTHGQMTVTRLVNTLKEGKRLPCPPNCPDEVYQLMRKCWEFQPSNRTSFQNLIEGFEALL

pIC50 [1] | pIC50 [2] | SMILES
9.92 | 9.82 | CC(C)(C)OC(=O)N1CC[C@](CC#N)(n2nc(Nc3ccc([C@H](O)C(F)(F)F)cc3)c3c(=O)[nH]ccc32)[C@H](F)C1 (single isomer, unassigned) [Example 5-20, tert-butyl (3R,4R)-4-(cyanomethyl)-3-fluoro-4-[4-oxo-3-({4-[(1S or 1R)-2,2,2-trifluoro-1-hydroxyethyl]phenyl}amino)-4,5-dihydro-1H-pyrazolo [4,3-c]pyridin-1-yl] piperidine-1-carboxylate]
6.68 | 7.79 | CN(C)[C@H]1CC[C@@](CC#N)(n2nc(Nc3ccc4c(c3)CN(C(C)(C)C)S4(=O)=O)c3c(=O)[nH]ccc32)CC1 [Example 18-38, Cis 2-(1-(3-((2-(tert-butyl)-1,1-dioxido-2,3-dihydrobenzo[d]isothiazol-5-yl)amino)-4-oxo-4,5-dihydro-1H-pyrazolo[4,3-c]pyridin-1-yl)-4-(dimethylamino)cyclohexyl)acetonitrile]
6.46 | 7.64 | N#CC[C@]1(n2nc(Nc3cc(F)c4nccc(Cl)c4c3)c3c(=O)[nH]ccc32)CCOC1 (single isomer, unassigned) [Example 5-244, [(3S or 3R)-3-{3-[(4-chloro-8-fluoroquinolin-6-yl)amino]-4-oxo-4,5-dihydro-1H-pyrazolo[4,3-c]pyridin-1-yl}tetrahydrofuran-3-yl]acetonitrile]
9.85 | 10.15 | CN(C)S(=O)(=O)c1ccc(Nc2nn([C@]3(CC#N)CC[C@@H](C(=O)OC(C)(C)C)OC3)c3cc[nH]c(=O)c23)cc1 [Example 5-43, (2S,5S)-tert-butyl 5-(cyanomethyl)-5-(3-((4-(N,N-dimethylsulfamoyl)phenyl)amino)-4-oxo-4,5-dihydro-1H-pyrazolo[4,3-c]pyridin-1-yl)tetrahydro-2H-pyran-2-carboxylate]
< 5.83 | 7.19 | N#CC[C@]1(n2nc(Nc3ccc(Cl)cc3)c3c(=O)[nH]ccc32)CC[C@@H](Nc2ccccc2)CC1 [Example 18-13, Cis 2-(1-(3-((4-chlorophenyl)amino)-4-oxo-4,5-dihydro-1H-pyrazolo[4,3-c]pyridin-1-yl)-4-(phenylamino)cyclohexyl)acetonitrile]
9.24 | 9.60 | CN(C(C)(C)C)S(=O)(=O)c1ccc(Nc2nn([C@]3(CC#N)CCCOC3)c3cc[nH]c(=O)c23)cc1 [Example 5-182, N-tert-butyl-4-({1-[(3S)-3-(cyanomethyl)tetrahydro-2H-pyran-3-yl]-4-oxo-4,5-dihydro-1H-pyrazolo[4,3-c]pyridin-3-yl}amino)-N-methylbenzenesulfonamide]
7.90 | 8.71 | CC(C)Oc1ccc(CN2CCC(CC#N)(n3nc(Nc4ccc(S(=O)(=O)N(C)C)cc4)c4c(=O)[nH]ccc43)CC2)cc1 [Example 8-6, 4-[(1-{4-(cyanomethyl)-1-[4-(1methylethoxy)benzyl]piperidin-4-yl}-4-oxo-4,5-dihydro-1H-pyrazolo[4,3-c]pyridin-3-yl)amino]-N,N-dimethylbenzenesulfonamide]
7.26 | 8.61 | N#CC[C@]1(n2nc(Nc3ccc(Cl)c(F)c3)c3c(=O)[nH]ccc32)CC[C@H](Nc2ccccc2)CC1 [Example 18-26, Trans 2-(1-(3-((4-chloro-3-fluorophenyl)amino)-4-oxo-4,5-dihydro-1H-pyrazolo[4,3-c]pyridin-1-yl)-4-(phenylamino)cyclohexyl)acetonitrile]
9.46 | 9.92 | COC(=O)N1CCC(CC#N)(n2nc(Nc3ccc4c(c3)CN(CC(C)C)S4(=O)=O)c3c(=O)[nH]ccc32)CC1 [Example 5-73, methyl 4-(cyanomethyl)-4-(3-{[2-(2-methylpropyl)-1,1-dioxo-2,3-dihydro-1,2-benzothiazol-5-yl]amino}-4-oxo-1H,4H,5H-pyrazolo [4,3-c]pyridin-1-yl) piperidine-1-carboxylate]
10.10 | 10.05 | Cc1cc(Nc2nn([C@]3(CC#N)CCOC[C@@H]3F)c3cc[nH]c(=O)c23)ccc1C(=O)N1CCSCC1 (single isomer, unassigned) [Example 5-262, 2-((3R,4R or 3S,4S)-3-fluoro-4-(3-((3-methyl-4-(thiomorpholine-4-carbonyl)phenyl)amino)-4-oxo-4,5-dihydro-1H-pyrazolo[4,3-c]pyridin-1-yl)tetrahydro-2H-pyran-4-yl)acetonitrile]
8.42 | 9.66 | CC(C)OC(=O)N1CCC(CC#N)(n2nc(Nc3ccnc(F)c3)c3c(=O)[nH]ccc32)CC1 [Example 13-1, isopropyl-4-(cyanomethyl)-4-(3-(2-fluoropyridin-4-ylamino)-4-oxo-4,5-dihydropyrazolo[4,3-c]pyridin-1-yl)piperidine-1-carboxylate]
7.56 | 7.87 | CN(C)S(=O)(=O)c1ccc(Nc2nn([C@@]3(CC#N)CCCOC3)c3cc[nH]c(=O)c23)cc1 [Example 5-29, (R)-4-((1-(3-(cyanomethyl)tetrahydro-2H-pyran-3-yl)-4-oxo-4,5-dihydro-1H-pyrazolo[4,3-c]pyridin-3-yl)amino)-N,N-dimethyl benzenesulfonamide]
9.21 | 9.57 | COCC(C)OC(=O)N1CCC(CC#N)(n2nc(Nc3ccc(S(=O)(=O)N(C)C)cc3)c3c(=O)[nH]ccc32)CC1 (stereo not shown) [Example 11-5, 1-methoxypropan-2-yl 4-(cyanomethyl)-4-(3-((4-(N,N-dimethylsulfamoyl)phenyl)amino)-4-oxo-4,5-dihydro-1H-pyrazolo[4,3-c]pyridin-1-yl)piperidine-1-carboxylate]
9.09 | 9.28 | CC(C)(C)NC(c1ccc(Nc2nn([C@]3(CC#N)CC[C@@H](C(=O)OC(C)(C)C)OC3)c3cc[nH]c(=O)c23)cc1)C(F)(F)F (single isomer, unassigned) [Example 5-194, (2S,5S)-tert-butyl 5-(3-((4-((R or S)-1-(tert-butylamino)-2,2,2-trifluoroethyl)phenyl)amino)-4-oxo-4,5-dihydro-1H-pyrazolo [4,3-c]pyridin-1-yl)-5-(cyanomethyl)tetrahydro-2H-pyran-2-carboxylate]
9.74 | 9.85 | CN(C(C)(C)C)S(=O)(=O)c1ccc(Nc2nn(C3(CC#N)CCN(C(=O)C(C)(F)F)CC3)c3cc[nH]c(=O)c23)cc1 [Example 5-58, N-(tert-butyl)-4-((1-(4-(cyanomethyl)-1-(2,2-difluoropropanoyl)piperidin-4-yl)-4-oxo-4,5-dihydro-1H-pyrazolo[4,3-c]pyridin-3-yl)amino)-N-methylbenzenesulfonamide]
7.10 | 7.89 | N#CC[C@]1(n2nc(Nc3ccc(C#N)cc3)c3c(=O)[nH]ccc32)CCOC1 (single isomer, unassigned) [Example 5-240, 4-({1-[(3S or 3R)-3-(cyanomethyl)tetrahydrofuran-3-yl]-4-oxo-4,5-dihydro-1H-pyrazolo[4,3-c]pyridin-3-yl}amino)benzonitrile]
8.92 | 9.80 | CN(C)S(=O)(=O)c1ccc(Nc2nn(C3(CC#N)CCN(C(=O)C4CCCCC4)CC3)c3cc[nH]c(=O)c23)cc1 [Example 9-8, 4-({1-[4-(cyanomethyl)-1-(cyclohexylcarbonyl)piperidin-4-yl]-4-oxo-4,5-dihydro-1H-pyrazolo[4,3-c]pyridin-3-yl}amino)-N,N-dimethylbenzenesulfonamide]
9.20 | 10.15 | CC(C)(C)OC(=O)[C@@H]1CC[C@@](CC#N)(n2nc(Nc3ccc4ncccc4c3)c3c(=O)[nH]ccc32)CO1 [Example 5-215, (2S,5S)-tert-butyl 5-(cyanomethyl)-5-(4-oxo-3-(quinolin-6-ylamino)-4,5-dihydro-1H-pyrazolo[4,3-c]pyridin-1-yl)tetrahydro-2H-pyran-2-carboxylate]
8.65 | 9.66 | CC(C)(C)OC(=O)N1CCC(CC#N)(n2nc(Nc3ccc(F)cc3)c3c(=O)[nH]ccc32)CC1 [Example 5-48, tert-butyl 4-(cyanomethyl)-4-{3-[(4-fluorophenyl)amino]-4-oxo-4,5-dihydro-1H-pyrazolo[4,3-c]pyridin-1-yl}piperidine-1-carboxylate]
9.29 | 9.55 | CCN(CC(F)(F)F)C(=O)c1ccc(Nc2nn([C@]3(CC#N)CC[C@@H](C(=O)OC(C)(C)C)OC3)c3cc[nH]c(=O)c23)cc1C [Example 20-14, (2S,5S)-tert-butyl 5-(cyanomethyl)-5-(3-((4-(ethyl(2,2,2-trifluoroethyl)carbamoyl)-3-methylphenyl)amino)-4-oxo-4,5-dihydro-1H-pyrazolo[4,3-c]pyridin-1-yl)tetrahydro-2H-pyran-2-carboxylate]
9.36 | 9.68 | CC(C)(C)OC(=O)N1CCC(CC#N)(n2nc(Nc3ccc([C@H](O)C(F)(F)F)cc3)c3c(=O)[nH]ccc32)CC1 (single isomer, unassigned) [Example 5-2, tert-butyl 4-(cyanomethyl)-4-[4-oxo-3-({4-[(1S or 1R)-2,2,2-trifluoro-1-hydroxyethyl]phenyl}amino)-4,5-dihydro-1H-pyrazolo[4,3-c]pyridin-1-yl]piperidine-1-carboxylate]
7.60 | 8.65 | CC(C)(C)OC(=O)N1CC(CC#N)(n2nc(Nc3ccccc3)c3c(=O)[nH]ccc32)C1 [Example 1-1, tert-butyl 3-(cyanomethyl)-3-(4-oxo-3-(phenylamino)-4,5-dihydro-1H-pyrazolo[4,3-c]pyridin-1-yl)azetidine-1-carboxylate]
9.00 | 9.41 | CC1CN(S(=O)(=O)c2ccc(Nc3nn([C@]4(CC#N)CCCOC4)c4cc[nH]c(=O)c34)cc2)C1 [Example 5-106, {(3S)-3-[3-({4-[(3-methylazetidin-1-yl)sulfonyl]phenyl}amino)-4-oxo-4,5-dihydro-1H-pyrazolo[4,3-c]pyridin-1-yl]tetrahydro-2H-pyran-3-yl}acetonitrile]
